We go through eight compounds from patent publication US20250179047A1, “5-[7-(3,4-DIHYDRO-1H-ISOQUINOLINE-2-CARBONYL)-1,2,3,4 TETRAHYDROISOQUINOLIN-6-YL]-1H-PYRROLE-3-CARBOXAMIDE DERIVATIVES, PHARMACEUTICAL COMPOSITIONS CONTAINING THEM AND THEIR USES AS PRO-APOPTOTIC AGENTS” (LES LABORATOIRES SERVIER, priority 2022, published 2025).

One test relates to KMS-12-PE Bcl-2 WT. The experiment in a line: In vitro cytotoxicity CellTiter-Glo 48 h, KMS-12-PE Bcl-2 WT. It is filed as cell-based. Particulars: Homo sapiens, KMS-12-PE, C50 = concentration needed to reach 50% of the cellular viability. The method, boiled down:
(§1)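 CTG luminescence read-out; C50 = concentration reaching 50% cellular viability. Cells: KMS-12-PE expressing Bcl-2 WT or G101V (lentiviral, TagRFP-sorted). 11-pt curve, 48 h, 37 °C/5% CO2.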

The test system of a further test is KMS-12-PE Bcl-2 G101V. The experiment in a line: In vitro cytotoxicity CellTiter-Glo 48 h, KMS-12-PE Bcl-2 G101V. The test is classed as cell-based. Particulars: for Ratio (G101V/WT): C50 KMS-12-PE Bcl-2 G101V over C50 KMS-12-PE Bcl-2 WT; for IC50: Homo sapiens, KMS-12-PE, 48 h, CellTiter-Glo, C50 = concentration needed to reach 50% of the cellular viability. The method, boiled down: as §1

Test [1] deals with BCL2 G101V. The experiment in a line: TR-FRET competitive binding assay, BCL2 G101V. Particulars: ratio Ki BCL2 G101V / Ki BCL2 WT. Set-up: species or system human. Summed up: (§2)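 Competitive TR-FRET displacement of fluorescein-PUMA peptide (2 or 20 nM) from 0.5 nM terbium-labelled N-terminal Halo-fusion BCL2 (1-207, wild type or mutant) or BCLXL (2-196), expressed in E. coli. Buffer 50 mM Hepes pH 7.5, 150 mM NaCl, 5% DMSO; 2 h at 23°C. 520/495 nm ratio fitted over 11 points for IC50, converted to Ki.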

Test [2] has as its target BCL2 G101V (Homo sapiens, UniProt P10415, G101V). Description: TR-FRET competitive binding assay, BCL2 G101V. Particulars: BCL2 G101V; Ki determined from IC50; read-out: TR_FRET EKI_Bcl2 G101V. Summed up: as §2
Another test has as its target BCL2 D103Y (Homo sapiens, UniProt P10415, D103Y). Description: TR-FRET competitive binding assay, BCL2 D103Y. Particulars: Ki determined from IC50, read-out: TR_FRET EKI_Bcl2 D103Y. Summed up: as §2
For the next test, the target named is BCL2 WT (Homo sapiens (Human), UniProt P10415). The experiment in a line: TR-FRET competitive binding assay, BCL2 WT. Particulars: Ki determined from IC50, read-out: TR_FRET EKI_Bcl2 WT. The method, boiled down:
as §2

The target of the next test is BCLXL WT (Homo sapiens (Human), UniProt Q07817). The experiment in a line: TR-FRET competitive binding assay, BCLXL WT. Particulars: for Ki: BCLXL WT, Ki determined from IC50, read-out: TR_FRET EKI BclxL; for TR_FRET EKI BCLxL/WT selectivty ratio: ratio Ki BCLxL / Ki BCL2 WT. Summed up:
as §2

The structures appear in SMILES notation.

Chain of BCLXL WT (Q07817 other isoform, or with tags, fused parts or gaps): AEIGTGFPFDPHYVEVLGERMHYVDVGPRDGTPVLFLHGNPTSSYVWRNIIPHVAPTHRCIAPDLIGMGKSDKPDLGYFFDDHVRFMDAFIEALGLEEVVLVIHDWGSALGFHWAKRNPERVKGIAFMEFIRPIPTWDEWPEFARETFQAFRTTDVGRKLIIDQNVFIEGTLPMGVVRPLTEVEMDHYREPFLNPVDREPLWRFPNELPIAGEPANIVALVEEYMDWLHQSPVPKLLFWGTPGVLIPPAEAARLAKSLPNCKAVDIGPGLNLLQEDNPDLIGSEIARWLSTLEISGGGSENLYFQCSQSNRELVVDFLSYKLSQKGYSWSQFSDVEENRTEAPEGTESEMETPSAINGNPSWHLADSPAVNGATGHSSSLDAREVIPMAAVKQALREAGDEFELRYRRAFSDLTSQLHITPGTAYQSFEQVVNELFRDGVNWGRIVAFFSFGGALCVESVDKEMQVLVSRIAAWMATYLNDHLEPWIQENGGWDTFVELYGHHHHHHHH

As to `Cc1c(C(=O)N(c2ccc(O)cc2)c2ccc3c(cnn3C)c2)cc(-c2cc3c(cc2C(=O)N2Cc4ccccc4C[C@H]2C)CN(C(=O)Cc2ccc(OCCN4CCOCC4)cc2)CC3)n1C` [Example 90, N-(4-hydroxyphenyl)-1,2-dimethyl-5-(7-{[(3R)-3-methyl-3,4-dihydro-1H-isoquinolin-2-yl]carbonyl}-2-(2-{4-[2-(morpholin-4-yl)ethoxy]phenyl}acetyl)-3,4-dihydro-1H-isoquinolin-6-yl)-N-(1-methylindazol-5-yl)pyrrole-3-carboxamide], the IC50 in the test with KMS-12-PE Bcl-2 WT stood at 0.0111 µM; with KMS-12-PE Bcl-2 G101V, 0.0657 µM. Further, the “Ratio (G101V/WT)” value with KMS-12-PE Bcl-2 G101V was determined as 5.92. Also, the “TR_FRET EKI G101V/WT selectivty ratio” value in the test with BCL2 G101V [1] stood at 3.4. The Ki turned out to be 0.8 nM on BCL2 G101V [2], 0.88 nM at BCL2 D103Y, 0.25 nM on BCL2 WT and 4.5 nM at BCLXL WT. Moreover, on BCLXL WT, the “TR_FRET EKI BCLxL/WT selectivty ratio” value stood at 18.0.

On to `Cc1c(N(C(=O)c2cc(-c3cc4c(cc3C(=O)N3Cc5ccccc5C[C@H]3CN3CCCCC3)CN(C(=O)Cc3ccc(OCCN5CCO[C@@H](C)C5)cc3)CC4)n(C)c2C)c2ccc(O)cc2)cc(C#N)n1C` [Example 150, N-(5-cyano-1,2-dimethyl-1H-pyrrol-3-yl)-N-(4-hydroxyphenyl)-1,2-dimethyl-5-[2-(2-{4-[2-((2S)-2-methylmorpholin-4-yl)ethoxy]phenyl}acetyl)-7-[(3S)-3-[(piperidin-1-yl)methyl]-1,2,3,4-tetrahydroisoquinoline-2-carbonyl]-1,2,3,4-tetrahydroisoquinolin-6-yl]-1H-pyrrole-3-carboxamide], for which the half-maximal inhibitory concentration (IC50) in the test with KMS-12-PE Bcl-2 WT is 0.011 µM; in the test with KMS-12-PE Bcl-2 G101V, 0.0579 µM. Further, the “Ratio (G101V/WT)” value in the test with KMS-12-PE Bcl-2 G101V amounted to 5.2636. In addition, the “TR_FRET EKI G101V/WT selectivty ratio” value in the test on BCL2 G101V [1] is reported as 6.2. In addition, the Ki on BCL2 G101V [2] amounted to 0.2 nM; on BCL2 D103Y, 0.08 nM; on BCL2 WT, 0.04 nM; on BCLXL WT, 2.6 nM. The “TR_FRET EKI BCLxL/WT selectivty ratio” value on BCLXL WT was 70.3.

`Cc1c(N(C(=O)c2cc(-c3cc4c(cc3C(=O)N3Cc5ccccc5C[C@H]3C)CN(C(=O)Cc3ccc(Oc5ccccc5)cc3)CC4)n(C)c2C)c2ccc(O)cc2)cc(C#N)n1C` [Example 10, N-(5-cyano-1,2-dimethyl-1H-pyrrol-3-yl)-N-(4-hydroxyphenyl)-1,2-dimethyl-5-{7-[(3R)-3-methyl-1,2,3,4-tetrahydroisoquinoline-2-carbonyl]-2-[2-(4-phenoxyphenyl)acetyl]-1,2,3,4-tetrahydroisoquinolin-6-yl}-1H-pyrrole-3-carboxamide]: the IC50 with KMS-12-PE Bcl-2 WT came out at 0.014 µM; in the test with KMS-12-PE Bcl-2 G101V it was 0.0641 µM. For the same compound, the “Ratio (G101V/WT)” value in the test with KMS-12-PE Bcl-2 G101V is given as 4.58. Also, the “TR_FRET EKI G101V/WT selectivty ratio” value in the test with BCL2 G101V [1] turned out to be 2.6. In addition, the Ki on BCL2 G101V [2] is 5.7 nM; at BCL2 D103Y it was 2.98 nM; at BCL2 WT it was 2.2 nM; at BCLXL WT, 31.2 nM. Moreover, at BCLXL WT, the “TR_FRET EKI BCLxL/WT selectivty ratio” value stood at 14.2.

With `Cc1c(N(C(=O)c2cc(-c3cc4c(cc3C(=O)N3Cc5ccccc5C[C@H]3C)CN(C(=O)Cc3ccc([C@H]5C[C@@H]5N5CCOCC5)cc3F)CC4)n(C)c2C)c2ccc(O)cc2)cc(C#N)n1C` (single isomer, unassigned) [Example 70, N-(5-cyano-1,2-dimethyl-pyrrol-3-yl)-5-[2-[2-[2-fluoro-4-[(1S,2R) or (1R,2S)-2-morpholinocyclopropyl]phenyl]acetyl]-7-[(3R)-3-methyl-3,4-dihydro-1H-isoquinoline-2-carbonyl]-3,4-dihydro-1H-isoquinolin-6-yl]-N-(4-hydroxyphenyl)-1,2-dimethyl-pyrrole-3-carboxamide], the values for the IC50 in the test on KMS-12-PE Bcl-2 WT and in the test with KMS-12-PE Bcl-2 G101V were 0.0076 µM and 0.0629 µM, respectively. In addition, the “Ratio (G101V/WT)” value in the test with KMS-12-PE Bcl-2 G101V was found to be 8.32. Also, the “TR_FRET EKI G101V/WT selectivty ratio” value in the test on BCL2 G101V [1] is reported as 8.4. Also, the Ki on BCL2 G101V [2] is 0.9 nM; at BCL2 D103Y, 0.29 nM; at BCL2 WT it was 0.11 nM; at BCLXL WT it was 2.3 nM. Moreover, the “TR_FRET EKI BCLxL/WT selectivty ratio” value at BCLXL WT worked out at 20.9.

Turning to `Cc1c(N(C(=O)c2cc(-c3cc4c(cc3C(=O)N3Cc5ccccc5C[C@H]3CN3CCCC3)CN(C(=O)Cc3ccc(OCCC5CCOCC5)cc3)CC4)n(C)c2C)c2ccc(O)cc2)cc(C#N)n1C` [Example 99, N-(5-cyano-1,2-dimethylpyrrol-3-yl)-N-(4-hydroxyphenyl)-1,2-dimethyl-5-[2-(2-{4-[2-(oxan-4-yl)ethoxy]phenyl}acetyl)-7-{[(3S)-3-(pyrrolidin-1-ylmethyl)-3,4-dihydro-1H-isoquinolin-2-yl]carbonyl}-3,4-dihydro-1H-isoquinolin-6-yl]pyrrole-3-carboxamide], the concentration for half-maximal inhibition (IC50) with KMS-12-PE Bcl-2 WT was 0.0105 µM; in the test on KMS-12-PE Bcl-2 G101V, 0.0763 µM. Moreover, in the test with KMS-12-PE Bcl-2 G101V, the “Ratio (G101V/WT)” value is 7.27. The “TR_FRET EKI G101V/WT selectivty ratio” value in the test on BCL2 G101V [1] came out at 5.2. Further, the Ki on BCL2 G101V [2] was determined as 0.3 nM; at BCL2 D103Y, 0.14 nM; on BCL2 WT, 0.05 nM; at BCLXL WT, 2.8 nM. Further, at BCLXL WT, the “TR_FRET EKI BCLxL/WT selectivty ratio” value worked out at 52.8.

Turning to `Cc1c(N(C(=O)c2cc(-c3cc4c(cc3C(=O)N3Cc5ccccc5C[C@H]3CN3CCCCC3)CN(C(=O)Cc3ccc(OCCN5CCC(F)(F)C5)cc3)CC4)n(C)c2C)c2ccc(O)cc2)cc(C#N)n1C` [Example 82, N-(5-cyano-1,2-dimethylpyrrol-3-yl)-5-[2-(2-{4-[2-(3,3-difluoropyrrolidin-1-yl)ethoxy]phenyl}acetyl)-7-{[(3S)-3-(piperidin-1-ylmethyl)-3,4-dihydro-1H-isoquinolin-2-yl]carbonyl}-3,4-dihydro-1H-isoquinolin-6-yl]-N-(4-hydroxyphenyl)-1,2-dimethylpyrrole-3-carboxamide], the results for the IC50 in the test with KMS-12-PE Bcl-2 WT and in the test on KMS-12-PE Bcl-2 G101V were 0.0095 µM and 0.0572 µM, respectively. Also, the “Ratio (G101V/WT)” value in the test with KMS-12-PE Bcl-2 G101V worked out at 6.45. The “TR_FRET EKI G101V/WT selectivty ratio” value with BCL2 G101V [1] is listed as 6.7. Moreover, the Ki turned out to be 1.2 nM at BCL2 G101V [2], 0.35 nM on BCL2 D103Y, 0.19 nM at BCL2 WT and 6.3 nM at BCLXL WT. Also, the “TR_FRET EKI BCLxL/WT selectivty ratio” value at BCLXL WT is given as 33.9.

Regarding `Cc1c(N(C(=O)c2cc(-c3cc4c(cc3C(=O)N3Cc5ccccc5C[C@H]3C)CN(C(=O)Cc3ccc(OCCN5CCN(CC(F)(F)F)CC5)cc3)CC4)n(C)c2C)c2ccc(O)cc2)cc(C#N)n1C` [Example 32, N-(5-cyano-1,2-dimethyl-1H-pyrrol-3-yl)-N-(4-hydroxyphenyl)-1,2-dimethyl-5-{7-[(3R)-3-methyl-1,2,3,4-tetrahydroisoquinoline-2-carbonyl]-2-[2-(4-{2-[4-(2,2,2-trifluoroethyl)piperazin-1-yl]ethoxy}phenyl)acetyl]-1,2,3,4-tetrahydroisoquinolin-6-yl}-1H-pyrrole-3-carboxamide], the values for the half-maximal inhibitory concentration (IC50) with KMS-12-PE Bcl-2 WT and in the test on KMS-12-PE Bcl-2 G101V were 0.0073 µM and 0.0393 µM, respectively. Further, the “Ratio (G101V/WT)” value in the test on KMS-12-PE Bcl-2 G101V is given as 5.38. The “TR_FRET EKI G101V/WT selectivty ratio” value with BCL2 G101V [1] is given as 2.6. Moreover, the Ki at BCL2 G101V [2] was found to be 1.7 nM; at BCL2 D103Y, 1.04 nM; on BCL2 WT, 0.64 nM; at BCLXL WT it was 6.7 nM. For the same compound, on BCLXL WT, the “TR_FRET EKI BCLxL/WT selectivty ratio” value is 10.5.

Take `Cc1c(N(C(=O)c2cc(-c3cc4c(cc3C(=O)N3Cc5ccccc5C[C@H]3C)CN(C(=O)Cc3ccc(Br)cc3F)CC4)n(C)c2C)c2ccc(O)cc2)cc(C#N)n1C` [Example 24, 5-{2-[2-(4-bromo-2-fluorophenyl)acetyl]-7-[(3R)-3-methyl-1,2,3,4-tetrahydroisoquinoline-2-carbonyl]-1,2,3,4-tetrahydroisoquinolin-6-yl}-N-(5-cyano-1,2-dimethyl-1H-pyrrol-3-yl)-N-(4-hydroxyphenyl)-1,2-dimethyl-1H-pyrrole-3-carboxamide]: the IC50 with KMS-12-PE Bcl-2 WT is 0.0059 µM; in the test with KMS-12-PE Bcl-2 G101V, 0.0423 µM. The “Ratio (G101V/WT)” value in the test on KMS-12-PE Bcl-2 G101V is 7.19. Further, in the test on BCL2 G101V [1], the “TR_FRET EKI G101V/WT selectivty ratio” value was 3.4. Also, the Ki came to 1.8 nM at BCL2 G101V [2], 1.02 nM on BCL2 D103Y, 0.53 nM on BCL2 WT and 6.1 nM on BCLXL WT. Further, on BCLXL WT, the “TR_FRET EKI BCLxL/WT selectivty ratio” value amounted to 11.5.
